Measured values reported in patent publication US8975415B2, “Chromane compounds” (CoMentis, Inc., priority 2012, dated 2015).

How the values were obtained:
[1] = target: T1, BACE1 (Homo sapiens (Human), UniProt P56817); test: Measurement of BACE1 inhibition by fluorescence resonance energy transfer (FRET), MCA substrate; settings: FRET; for IC50: read-out: Test Example 1 IC50, MCA-SEVNLDAEFK(DNP)-NH2 substrate, pH 4.4; for Ki: read-out: Test Example 1 BACE1 MCA Ki, MCA substrate
Target sequence in this assay (P56817 75-416): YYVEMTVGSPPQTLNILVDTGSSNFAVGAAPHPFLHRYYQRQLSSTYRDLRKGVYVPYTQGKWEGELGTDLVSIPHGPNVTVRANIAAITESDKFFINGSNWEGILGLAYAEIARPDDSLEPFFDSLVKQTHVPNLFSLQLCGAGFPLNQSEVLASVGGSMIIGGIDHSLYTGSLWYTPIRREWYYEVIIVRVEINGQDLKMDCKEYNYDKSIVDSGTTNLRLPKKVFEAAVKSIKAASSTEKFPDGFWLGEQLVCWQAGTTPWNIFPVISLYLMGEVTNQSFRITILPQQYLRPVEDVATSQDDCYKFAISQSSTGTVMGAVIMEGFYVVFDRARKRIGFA

[2] = target: T1, BACE1; test: Measurement of Aβ production inhibition in cell (SK-N-BE(2) neuroblastoma cells, Aβ40 ELISA); settings: Test Example 3 IC50, Aβ40 production, SK-N-BE(2) cells, 6 hours
Target sequence in this assay (P56817 46-501): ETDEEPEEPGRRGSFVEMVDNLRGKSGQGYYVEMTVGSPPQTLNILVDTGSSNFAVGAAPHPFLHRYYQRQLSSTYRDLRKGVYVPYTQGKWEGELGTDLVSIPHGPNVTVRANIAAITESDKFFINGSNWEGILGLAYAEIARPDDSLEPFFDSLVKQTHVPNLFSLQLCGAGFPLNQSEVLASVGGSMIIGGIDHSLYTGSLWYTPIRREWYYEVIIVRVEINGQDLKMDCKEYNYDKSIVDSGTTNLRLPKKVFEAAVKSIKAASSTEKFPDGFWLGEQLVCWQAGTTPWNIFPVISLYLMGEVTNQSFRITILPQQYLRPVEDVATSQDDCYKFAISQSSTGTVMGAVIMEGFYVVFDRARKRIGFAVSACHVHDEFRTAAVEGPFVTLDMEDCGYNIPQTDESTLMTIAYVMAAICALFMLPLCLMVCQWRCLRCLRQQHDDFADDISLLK

[3] = target: T1, BACE1; test: Measurement of BACE1 inhibition by time resolved fluorescence resonance energy transfer (TR-FRET); format: biochemical; settings: Eu-CEVNLDAEFK-QSY 7 substrate, read-out: Test Example 2 IC50
Target sequence in this assay (P56817 75-416): as the sequence (P56817 75-416) above
Experimental: If the sample contains BACE1 activity, the Eu chelate and the quencher will be separated as the substrate is cleaved. The Eu-signal increases and it can be measured by time-resolved fluorometry, EnVision™, 30 minutes after the substrate (final concentration 300 nM) was added.

[4] = target: hERG potassium channel (Homo sapiens (Human), UniProt Q12809); test: hERG inhibition, automated planar patch-clamp in hERG-expressing CHO cells; settings: read-out: Test Example 5 hERG IC50; whole-cell patch clamp, room temperature
Chain of hERG potassium channel (Q12809 whole entry): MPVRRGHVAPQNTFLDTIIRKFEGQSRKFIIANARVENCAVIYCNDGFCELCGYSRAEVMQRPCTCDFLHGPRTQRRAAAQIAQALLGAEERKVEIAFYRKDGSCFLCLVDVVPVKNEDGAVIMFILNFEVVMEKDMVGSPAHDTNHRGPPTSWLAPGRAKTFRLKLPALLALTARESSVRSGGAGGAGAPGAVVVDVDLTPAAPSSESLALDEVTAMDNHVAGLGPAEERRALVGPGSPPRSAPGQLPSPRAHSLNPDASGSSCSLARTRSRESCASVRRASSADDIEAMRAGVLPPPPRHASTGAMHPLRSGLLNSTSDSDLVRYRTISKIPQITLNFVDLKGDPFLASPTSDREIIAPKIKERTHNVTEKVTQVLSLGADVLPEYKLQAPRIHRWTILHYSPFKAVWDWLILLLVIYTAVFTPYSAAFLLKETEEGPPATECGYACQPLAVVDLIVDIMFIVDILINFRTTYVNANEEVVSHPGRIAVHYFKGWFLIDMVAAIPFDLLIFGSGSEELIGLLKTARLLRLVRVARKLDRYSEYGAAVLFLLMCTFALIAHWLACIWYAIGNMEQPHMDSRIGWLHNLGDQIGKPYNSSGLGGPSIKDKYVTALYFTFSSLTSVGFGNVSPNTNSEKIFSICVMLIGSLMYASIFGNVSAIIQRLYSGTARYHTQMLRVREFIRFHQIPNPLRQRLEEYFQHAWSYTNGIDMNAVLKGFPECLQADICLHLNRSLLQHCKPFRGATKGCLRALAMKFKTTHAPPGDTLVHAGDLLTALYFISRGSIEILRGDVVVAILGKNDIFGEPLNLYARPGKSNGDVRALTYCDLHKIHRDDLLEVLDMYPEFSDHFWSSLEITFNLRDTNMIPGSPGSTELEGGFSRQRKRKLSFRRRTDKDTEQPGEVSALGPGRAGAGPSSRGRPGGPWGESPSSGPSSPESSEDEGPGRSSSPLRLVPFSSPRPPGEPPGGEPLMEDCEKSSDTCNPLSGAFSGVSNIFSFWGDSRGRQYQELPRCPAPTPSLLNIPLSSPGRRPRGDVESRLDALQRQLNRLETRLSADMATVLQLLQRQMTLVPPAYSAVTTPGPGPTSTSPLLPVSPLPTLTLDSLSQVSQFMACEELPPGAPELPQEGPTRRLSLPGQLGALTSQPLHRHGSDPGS

Row | SMILES | IC50 [1] [nM] | IC50 [2] [nM] | IC50 [3] [nM] | IC50 [4] [nM] | Ki [1] [nM]
1 | CC1(C)Oc2ccc(-c3cc(C#N)ccc3F)cc2C2(COC(N)=N2)C12COC2 (stereo not shown) [RP 170] | 1000 | 400 | 588 | – | –
2 | CC1(C)Oc2ccc(-c3cccc(OC(F)(F)F)c3)cc2C2(COC(N)=N2)C12COC2 (stereo not shown) [RP 183] | 1080 | – | 880 | – | –
3 | Cn1cc2cc(-c3ccc4c(c3)C3(COC(N)=N3)C3(CC3)CO4)ccc2n1 (stereo not shown) [RP 213] | – | – | 39600 | > 10000 | –
4 | CC1(C)Oc2ccc(-c3ccc4c(c3)OCO4)cc2C2(COC(N)=N2)C12COC2 (stereo not shown) [RP 182] | – | 2500 | 1450 | – | –
5 | NC1=NC2(CO1)c1cc(C3=CCOCC3)ccc1OCC21COC1 (stereo not shown) [RP 24] | 37900 | – | 32900 | – | –
6 | CC1(C)Oc2ccc(-c3ccccc3OC(F)(F)F)cc2C2(COC(N)=N2)C12COC2 (stereo not shown) [RP 184] | 2820 | – | 2720 | – | –
7 | CC1(C)Oc2ccc(-c3cc(F)ccn3)cc2C2(COC(N)=N2)C12COC2 (stereo not shown) [RP 149] | – | 1100 | 1590 | – | –
8 | CNC(=O)c1cc(F)cc(-c2ccc3c(c2)C2(COC(N)=N2)C2(COC2)C(C)(C)O3)c1 (stereo not shown) [RP 171] | 2240 | 3100 | 3040 | – | –
9 | CC1(C)Oc2ccc(-c3cncc(Cl)n3)cc2C2(COC(N)=N2)C12COC2 (stereo not shown) [RP 150] | – | 450 | 759 | – | –
10 | CC1(C)Oc2ccc(-c3ccc(OC(F)F)cc3)cc2C2(COC(N)=N2)C12COC2 (stereo not shown) [RP 187] | 3160 | – | 1920 | – | –
11 | CC1(C)Oc2ccc(-c3cccc4cc[nH]c34)cc2C2(COC(N)=N2)C12COC2 (stereo not shown) [RP 175] | 3230 | – | 1550 | – | –
12 | CC1(C)Oc2ccc(-c3cccc4cccnc34)cc2C2(COC(N)=N2)C12COC2 (stereo not shown) [RP 179] | 3240 | 1400 | 2060 | – | –
13 | CC1(C)Oc2ccc(-c3cnc4[nH]ccc4c3)cc2C2(COC(N)=N2)C12COC2 (stereo not shown) [RP 168] | – | 310 | 760 | – | –
14 | CCC1CC=C(c2ccc3c(c2)C2(COC(N)=N2)C2(COC2)C(C)(C)O3)CC1 (stereo not shown) [RP 172] | 2240 | – | 2160 | – | –
15 | COc1ncc(Cl)cc1-c1ccc2c(c1)C1(COC(N)=N1)C1(COC1)C(C)(C)O2 (stereo not shown) [RP 155] | – | 630 | 786 | – | –
16 | CC1(C)Oc2ccc(-c3ccc4nonc4c3)cc2C2(COC(N)=N2)C12COC2 (stereo not shown) [RP 178] | 1150 | 810 | 747 | – | –
17 | NC1=NC2(CO1)c1cc(-c3cncc4ccccc34)ccc1OC1(CCC1)C21COC1 (stereo not shown) [RP 210] | – | – | 4950 | 3700 | –
18 | CC1(C)Oc2ccc(-c3ccc4[nH]ccc4c3)cc2C2(COC(N)=N2)C12COC2 (stereo not shown) [RP 174, 6′-(1H-indol-5-yl)-2′,2′-dimethyldispiro[1,3-oxazole-4,4′-chromene-3′,3″-oxetan]-2-amine] | 3350 | 3400 | 2180 | – | –
19 | CC1(C)Oc2ccc(-c3ccc4[nH]ncc4c3)cc2C2(COC(N)=N2)C12COC2 (stereo not shown) [RP 177] | – | 1500 | 2120 | – | –
20 | CC1(C)Oc2ccc(-c3cccc4[nH]ncc34)cc2C2(COC(N)=N2)C12COC2 (stereo not shown) [RP 176] | – | 850 | 994 | – | –
21 | NC1=NC2(CO1)c1cc(-c3cnc4ccccc4c3)ccc1OC1(CCC1)C21COC1 (stereo not shown) [RP 211] | – | – | 19400 | – | –
22 | CC1(C)Oc2ccc(-c3cccc4cnccc34)cc2C2(COC(N)=N2)C12COC2 (stereo not shown) [RP 180] | 2030 | 490 | 1770 | – | –
23 | CC1(C)Oc2ccc(-c3ccnc(Cl)c3)cc2C2(COC(N)=N2)C12COC2 (stereo not shown) [RP 163] | – | – | 1060 | – | –
24 | CC#Cc1cncc(-c2ccc3c(c2)C2(COC(N)=N2)C2(COC2)CO3)n1 (stereo not shown) [RP 22] | – | 2900 | 2600 | – | –

Row | SMILES | IC50 [1] [nM] | IC50 [2] [nM] | IC50 [3] [nM] | IC50 [4] [nM] | Ki [1] [nM]
25 | CC1(C)Oc2ccc(-c3c(F)ccc(F)c3F)cc2C2(COC(N)=N2)C12COC2 (stereo not shown) [RP 185] | 2050 | 760 | 1270 | – | –
26 | CC#Cc1cc(-c2ccc3c(c2)C2(COC(N)=N2)C2(COC2)CO3)ncn1 (stereo not shown) [RP 21] | – | 410 | 1350 | – | –
27 | NC1=NC2(CO1)c1cc(-c3cncnc3)ccc1OC1(CCCC1)C21COC1 (stereo not shown) [RP 85] | 319 | 77 | – | > 10000 | –
28 | CC1(C)Oc2ccc(-c3cccc4[nH]ccc34)cc2C2(COC(N)=N2)C12COC2 (stereo not shown) [RP 186] | – | – | 2420 | – | –
29 | CC1(C)Oc2ccc(-c3cncc(Cl)c3)cc2C2(COC(N)=N2)C12COC2 (stereo not shown) [RP 173] | 401 | 73 | 239 | – | –
30 | CC#Cc1cncc(-c2ccc3c(c2)C2(COC(N)=N2)C2(CC2)CO3)c1 (single isomer, unassigned) [RP 52a, 6′-[5-(prop-1-yn-1-yl)pyridin-3-yl]dispiro[cyclopropane-1,3′-chromene-4′,4″-[1,3]oxazol]-2″-amine] | 161 | 75 | – | 4830 | –
31 | COC/C=C/c1ccc2c(c1)C1(COC(N)=N1)C1(COC1)C(C)(C)O2 (stereo not shown) [RP 181] | 2590 | 820 | 2130 | – | –
32 | NC1=NC2(CO1)c1cc(-c3cncnc3)ccc1OC(Cc1ccccc1)C21COC1 (stereo not shown) [RP 200] | 128 | 26 | – | > 10000 | 92.1
33 | NC1=NC2(CO1)c1cc(Br)ccc1OC(Cc1ccccc1)C21COC1 (single isomer, unassigned) [RP 15a] | 1720 | 1100 | – | > 10000 | –
34 | Cc1cc(-c2ccc3c(c2)C2(COC(N)=N2)C2(COC2)CO3)ccn1 (stereo not shown) [RP 37] | – | – | 55400 | – | –
35 | NC1=NC2(CO1)c1cc(Br)ccc1OC(Cc1ccccc1)C21COC1 (single isomer, unassigned) [RP 15b] | 1010 | 440 | – | 7930 | –
36 | NC1=NC2(CO1)c1cc(-c3cncnc3)ccc1OC(CC1CC1)C21COC1 (stereo not shown) [RP 207] | 460 | 160 | – | > 10000 | –
37 | COc1ccnc(-c2ccc3c(c2)C2(COC(N)=N2)C2(COC2)C(C)(C)O3)c1 (stereo not shown) [RP 65, 6′-(4-methoxypyridin-2-yl)-2′,2′-dimethyldispiro[1,3-oxazole-4,4′-chromene-3′,3″-oxetan]-2-amine] | – | 49 | 388 | – | –
38 | COc1cc(-c2ccc3c(c2)C2(COC(N)=N2)C2(COC2)C(C)(C)O3)ccn1 (stereo not shown) [RP 164] | – | – | 2310 | – | –
39 | NC1=NC2(CO1)c1cc(-c3cc(Cl)cnc3F)ccc1OCC21COC1 (stereo not shown) [RP 34] | 1240 | 260 | – | > 10000 | –
40 | CC#Cc1cc(-c2ccc3c(c2)C2(COC(N)=N2)C2(COC2)CO3)ccn1 (stereo not shown) [RP 20] | – | 580 | 2710 | – | –
41 | COCc1cnn(-c2ccc3c(c2)C2(COC(N)=N2)C2(COC2)C2(CCC2)O3)c1 (stereo not shown) [RP 4] | 12600 | 7200 | – | > 10000 | –
42 | CC#Cc1cncc(-c2ccc3c(c2)C2(COC(N)=N2)C2(CC2)CO3)c1 (stereo not shown) [RP 111] | 287 | 140 | – | 1980 | 252
43 | CC1(C)Oc2ccc(Br)cc2C2(COC(N)=N2)C12COC2 (stereo not shown) [RP 6, 6′-bromo-2′,2′-dimethyldispiro[1,3-oxazole-4,4′-chromene-3′,3″-oxetan]-2-amine] | 11700 | 3900 | – | > 10000 | –
44 | CCCC1Oc2ccc(-c3cncnc3)cc2C2(COC(N)=N2)C12COC2 (stereo not shown) [RP 91] | 656 | 340 | – | > 10000 | –
45 | CC#Cc1cncc(-c2ccc3c(c2)C2(COC(N)=N2)C2(COC2)C(CCC)O3)c1 (stereo not shown) [RP 92] | 124 | 37 | – | 5340 | 87.9
46 | CCc1cncc(-c2ccc3c(c2)C2(COC(N)=N2)C2(CC2)CO3)c1 (stereo not shown) [RP 63] | 7900 | 3300 | – | 4480 | –
47 | NC1=NC2(CO1)c1cc(-c3cncc(C(F)(F)F)c3)ccc1OC1(CCC1)C21COC1 (stereo not shown) [RP 99] | 2970 | 1900 | – | > 10000 | –
48 | NC1=NC2(CO1)c1cc(-c3cncnc3)c(F)cc1OCC21CC1 (stereo not shown) [RP 102] | 1610 | 240 | – | > 10000 | –
